Assay in all cases: malachite green phosphate release
What all share (assay type): biochemical
Settings in all cases: pH 8.0, 5 mM MgCl2, 200 mM KCl, 37 °C

The target of assay [1] is LmNFeoB (Listeria monocytogenes, UniProt Q8Y5F9).
The target in assay [2] is T1, SmNFeoB (Streptococcus mutans, UniProt Q8DVC3).
T1 sequence (Q8DVC3 1-273): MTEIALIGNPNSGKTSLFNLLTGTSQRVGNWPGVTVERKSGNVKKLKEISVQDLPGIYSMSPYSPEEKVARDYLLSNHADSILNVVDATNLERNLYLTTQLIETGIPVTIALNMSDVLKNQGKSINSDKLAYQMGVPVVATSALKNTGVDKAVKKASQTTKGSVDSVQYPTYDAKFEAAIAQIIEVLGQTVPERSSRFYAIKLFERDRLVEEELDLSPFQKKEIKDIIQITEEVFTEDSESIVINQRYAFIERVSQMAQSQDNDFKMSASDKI

Assay [3] has as its target T2, BcNFeoB (Bacillus cereus, UniProt Q72YQ6).
T2 sequence (Q72YQ6 1-269): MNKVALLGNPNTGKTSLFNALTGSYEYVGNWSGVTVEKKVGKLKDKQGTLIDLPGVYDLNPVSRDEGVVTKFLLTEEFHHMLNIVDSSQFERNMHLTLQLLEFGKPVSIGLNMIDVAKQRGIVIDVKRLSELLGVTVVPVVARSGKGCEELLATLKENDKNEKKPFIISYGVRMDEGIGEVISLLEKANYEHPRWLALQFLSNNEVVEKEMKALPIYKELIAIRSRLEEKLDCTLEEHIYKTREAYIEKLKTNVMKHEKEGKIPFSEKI

Assay [4] concerns the target SaNFeoB (Staphylococcus aureus, UniProt Q5HD01).
The target in assay [5] is StNFeoB (Salmonella enterica, UniProt P74884).
The target in assay [6] is PaNFeoB (Pseudomonas aeruginosa, UniProt Q9HW43).
The target of assay [7] is T3, EcNFeoB (Escherichia coli, UniProt P33650).
T3 sequence (P33650 1-274): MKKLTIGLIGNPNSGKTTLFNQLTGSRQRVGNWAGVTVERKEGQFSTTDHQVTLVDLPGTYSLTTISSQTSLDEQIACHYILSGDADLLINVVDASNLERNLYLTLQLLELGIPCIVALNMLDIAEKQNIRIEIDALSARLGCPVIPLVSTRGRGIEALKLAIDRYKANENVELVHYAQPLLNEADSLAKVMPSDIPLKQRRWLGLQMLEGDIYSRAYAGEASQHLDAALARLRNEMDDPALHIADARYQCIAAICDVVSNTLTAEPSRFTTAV

Structures are written as SMILES.

Chain of SaNFeoB (Q5HD01 1-272): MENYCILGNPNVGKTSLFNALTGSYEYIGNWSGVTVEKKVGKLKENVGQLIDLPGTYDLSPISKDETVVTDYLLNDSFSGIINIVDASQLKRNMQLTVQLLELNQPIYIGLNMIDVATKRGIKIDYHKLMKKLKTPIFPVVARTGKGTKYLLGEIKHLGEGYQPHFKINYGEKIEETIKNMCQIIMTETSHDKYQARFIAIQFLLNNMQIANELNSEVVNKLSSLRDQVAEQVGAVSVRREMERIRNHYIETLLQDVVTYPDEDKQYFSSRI
Chain of StNFeoB (P74884 1-274): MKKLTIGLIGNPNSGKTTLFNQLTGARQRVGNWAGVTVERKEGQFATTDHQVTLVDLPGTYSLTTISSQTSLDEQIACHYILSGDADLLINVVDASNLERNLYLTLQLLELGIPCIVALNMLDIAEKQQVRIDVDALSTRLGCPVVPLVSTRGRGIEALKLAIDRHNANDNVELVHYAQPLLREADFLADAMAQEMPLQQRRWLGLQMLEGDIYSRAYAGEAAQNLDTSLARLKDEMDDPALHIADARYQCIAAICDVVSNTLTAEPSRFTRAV

Consider `Nc1ncnc2c1ncn2[C@@H]1O[C@H](COP(=O)(O)OP(=O)(O)OP(=O)(O)O)[C@@H](O)[C@H]1O` [ATP], for which the “malachite green phosphate release” value in assay [1] is “LmNFeoB exhibited ATP hydrolysis activity similar to the activity of VcNFeoB”; in assay [2], “the NFeoB activities of S. aureus, S. mutans, and B. cereus”; in assay [3] it was “the NFeoB activities of S. aureus, S. mutans, and B. cereus”; in assay [4] it was “the NFeoB activities of S. aureus, S. mutans, and B. cereus”.

For `Nc1nc2c(ncn2[C@@H]2O[C@H](COP(=O)(O)OP(=O)(O)OP(=O)(O)O)[C@@H](O)[C@H]2O)c(=O)[nH]1` [GTP], the “malachite green phosphate release” value in assay [1] is “Its GTPase activity was higher than other monovalent cations”; in assay [2], “the NFeoB activities of S. aureus, S. mutans, and B. cereus”; in assay [5] it was “S. Typhimurium and P. aeruginosa exhibited only GTP hydrolytic activity”; in assay [3], “the NFeoB activities of S. aureus, S. mutans, and B. cereus”; in assay [6] it was “S. Typhimurium and P. aeruginosa exhibited only GTP hydrolytic activity”; in assay [7], “Like E. coli, S. Typhimurium and P. aeruginosa exhibited only GTP hydrolytic activity”. Also, in assay [4], the “malachite green phosphate release” value is “the NFeoB activities of S. aureus, S. mutans, and B. cereus”.

(Values after article PMC9841765 (Archives of biochemistry and biophysics, 2020).)
